Source: patent publication US20230348362A1, “LIPID COMPOUNDS AND LIPID NANOPARTICLE COMPOSITIONS” (Suzhou Abogen Biosciences Co., Ltd., priority 2021, published 2023)

How the values were obtained:
Format in all cases: physicochemical
[1] = Lipid nanoparticle size and polydispersity by dynamic light scattering; details: LNP of lipid/DSPC/cholesterol/PEG-lipid 50:10:38.5:1.5 encapsulating hEPO mRNA
Outline: (§1)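 LNPs made from ionizable lipid/DSPC/cholesterol/PEG-lipid (50:10:38.5:1.5) and mRNA in citrate pH 4 by microfluidic mixing, lipid:mRNA about 10:1–30:1 w/w, then dialysed into DPBS and filtered. Size and PDI measured by DLS in backscatter mode; encapsulation efficiency measured by RiboGreen assay.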

[2] = Encapsulation efficiency of lipid nanoparticles, Quant-it Ribogreen RNA assay; details: LNP of lipid/DSPC/cholesterol/PEG-lipid 50:10:38.5:1.5 encapsulating hEPO mRNA
Outline: as §1

[3] = Apparent pKa of LNP formulations, TNS fluorescence assay; details: LNP cationic lipid/DSPC/cholesterol/DMG-PEG 50/10/38.5/1.5 mol %
Outline: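 LNPs (cationic lipid/DSPC/cholesterol/DMG-PEG 50/10/38.5/1.5 mol %) diluted to 0.1 mg/mL total lipid in citrate/phosphate/borate/NaCl buffers spanning pH 3–9 with TNS. Fluorescence (ex 325, em 435 nm) read at room temperature; pKa taken as the pH at half-maximal intensity from sigmoidal fit.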

Compound	polydispersity [1]	size (nm) [1] [nm]	Encapsulation Efficiency [2] [%]	Apparent Pka [3]
CCCCCCCC(=O)OCC(CCCCN(CC=C(C)C)CCCCN(CCO)CCCCC(COC(=O)CCCCCCC)COC(=O)CCCCCCC)COC(=O)CCCCCCC [Compound 203]	0.16	131.9	78.17	6.874
CCCCCCCCC(CCCCCC)CNC(=O)CCCCCN(CCOCCO)CCN(CCCCC(COC(=O)CCCCCCC)COC(=O)CCCCCCC)C1CCCC1 (centres unmarked) [Compound 205]	0.023	104.3	81.79	6.917
CCCCCCCCC(CCCCCC)CNC(=O)CCCCCN(CCOCCO)CCN(CCCCC(COC(=O)CCCCCCC)COC(=O)CCCCCCC)C1CCCCC1 (centres unmarked) [Compound 206]	0.07	112.7	80.88	6.81
CCCCCCCCC(CCCCCC)CNC(=O)CCCCCN(CCOCCO)CCN(CCCCC(COC(=O)CCCCCCC)COC(=O)CCCCCCC)C1CCCCCC1 (centres unmarked) [Compound 207]	0.071	87.97	87.94	6.657
CCCCCCCCC(CCCCCC)CNC(=O)CCCCCN(CCOCCO)CCN(CCCCC(COC(=O)CCCCCCC)COC(=O)CCCCCCC)C1CCCCCCC1 (centres unmarked) [Compound 208]	0.053	85.95	86.63	6.691
CCCCCCCCC(CCCCCC)CNC(=O)CCCCCN(CCCCCO)CCN(CCCCC(COC(=O)CCCCCCC)COC(=O)CCCCCCC)C1CCCCC1 (centres unmarked) [Compound 209]	0.039	95.78	87.79	6.608
CCCCCCCCC(CCCCCC)CNC(=O)CCCCCN(CCCCCO)CCN(CCCCC(COC(=O)CCCCCCC)COC(=O)CCCCCCC)C1CCCCCCC1 (centres unmarked) [Compound 210]	0.06	79.56	91.52	6.49
CCCCCCCCC(CCCCCC)CNC(=O)CCCCN(CCO)CCN(CCCCC(COC(=O)CCCCCCC)COC(=O)CCCCCCC)C1CCCCCCC1 (centres unmarked) [Compound 214]	0.058	76.29	89.14	6.789
CCCCCCCCC(CCCCCC)CNC(=O)CCCCCCCN(CCO)CCN(CCCCC(COC(=O)CCCCCCC)COC(=O)CCCCCCC)C1CCCCCCC1 (centres unmarked) [Compound 215]	0.033	67.78	90.80	6.542
CCCCCCCC(=O)OCC(CCCCN(CCO)CCCCN(CCCCC(COC(=O)CCCCCCC)COC(=O)CCCCCCC)C1CCC1)COC(=O)CCCCCCC [Compound 219]	0.103	91.17	94.13	6.327
CCCCCCCCCCCOC(=O)CCCCCN(CCN(CCO)CCCCC(COC(=O)CCCCCCC)COC(=O)CCCCCCC)C1CCCCC1 [Compound 221]	0.07	99.33	93.71	6.316
CCCCCCCCOC(=O)C(CCCCN(CCN(CCO)CCCCCC(=O)OCC(CCCCCC)CCCCCCCC)C1CCC1)C(=O)OCCCCCCCC (centres unmarked) [Compound 223]	0.043	70.98	93.03	6.395
CCCCCCCCC(CCCCCC)CNC(=O)CCCCCN(CCCCCO)CCN(CCCCC(COC(=O)CCCCCCC)COC(=O)CCCCCCC)C1CCCC1 (centres unmarked) [Compound 224]	0.027	104.1	85.65	6.748
CCCCCCCCC(CCCCCC)CNC(=O)CCCCCN(CCCCCO)CCN(CCCCC(COC(=O)CCCCCCC)COC(=O)CCCCCCC)C1CCCCCC1 (centres unmarked) [Compound 225]	0.033	76.81	92.20	6.668
